Tests used:
Format in all cases: functional
[1] = tested on: Sorghum halepense; test: Post emergence herbicidal activity against four to five-leaf stage Sorghum halepense (Johnson grass) assessed as efficacy of weed growth control at 80 g ai/ha under greenhouse conditions
[2] = tested on: Cyperus microiria; test: Post-emergence herbicidal activity against three-leaf stage Cyperus microiria assessed as efficacy of weed growth control at 60 g ai/ha under greenhouse conditions
[3] = tested on: Abutilon theophrasti; test: Post-emergence herbicidal activity against one-leaf stage Abutilon theophrasti (velvetleaf) assessed as efficacy of weed growth control at 40 g ai/ha under greenhouse conditions
[4] = tested on: Commelina communis; test: Post emergence herbicidal activity against two-leaf stage Commelina communis (Asiatic dayflower) assessed as efficacy of weed growth control at 80 g ai/ha under greenhouse conditions
[5] = tested on: Cyperus microiria; test: Post-emergence herbicidal activity against three-leaf stage Cyperus microiria assessed as efficacy of weed growth control at 750 g ai/ha under greenhouse conditions
[6] = tested on: Elymus repens; test: Post-emergence herbicidal activity against three to four-leaf stage Elymus repens (couch grass) assessed as efficacy of weed growth control at 80 g ai/ha under greenhouse conditions
[7] = tested on: Cyperus microiria; test: Post-emergence herbicidal activity against three-leaf stage Cyperus microiria assessed as efficacy of weed growth control at 80 g ai/ha under greenhouse conditions
[8] = tested on: Persicaria lapathifolia; test: Post-emergence herbicidal activity against three-leaf stage Persicaria lapathifolia assessed as efficacy of weed growth control at 80 g ai/ha under greenhouse conditions
[9] = tested on: Portulaca oleracea; test: Post-emergence herbicidal activity against three-leaf stage Portulaca oleracea assessed as efficacy of weed growth control at 40 g ai/ha under greenhouse conditions
[10] = tested on: Elymus repens; test: Post-emergence herbicidal activity against three to four-leaf stage Elymus repens (couch grass) assessed as efficacy of weed growth control at 750 g ai/ha under greenhouse conditions
[11] = tested on: Setaria viridis; test: Post-emergence herbicidal activity against two-leaf stage Setaria viridis (green foxtail) assessed as efficacy of weed growth control at 60 g ai/ha under greenhouse conditions
[12] = tested on: Senna tora; test: Post-emergence herbicidal activity against one-leaf stage Senna tora assessed as efficacy of weed growth control at 80 g ai/ha under greenhouse conditions
[13] = tested on: Senna tora; test: Post-emergence herbicidal activity against one-leaf stage Senna tora assessed as efficacy of weed growth control at 60 g ai/ha under greenhouse conditions
[14] = tested on: Setaria viridis; test: Post-emergence herbicidal activity against two-leaf stage Setaria viridis (green foxtail) assessed as efficacy of weed growth control at 80 g ai/ha under greenhouse conditions
[15] = tested on: Echinochloa crus-galli; test: Post emergence herbicidal activity against three-leaf stage Echinochloa crus-galli (barnyard grass) assessed as efficacy of weed growth control at 750 g ai/ha under greenhouse conditions
[16] = tested on: Chenopodium album; test: Post emergence herbicidal activity against two-leaf stage Chenopodium album assessed as efficacy of weed growth control at 40 g ai/ha under greenhouse conditions
[17] = tested on: Elymus repens; test: Post-emergence herbicidal activity against three to four-leaf stage Elymus repens (couch grass) assessed as efficacy of weed growth control at 60 g ai/ha under greenhouse conditions
[18] = tested on: Avena fatua; test: Post emergence herbicidal activity against three-leaf stage Avena fatua assessed as efficacy of weed growth control at 750 g ai/ha under greenhouse conditions
[19] = tested on: Echinochloa crus-galli; test: Post emergence herbicidal activity against three-leaf stage Echinochloa crus-galli (barnyard grass) assessed as efficacy of weed growth control at 60 g ai/ha under greenhouse conditions
[20] = tested on: Sida spinosa; test: Post-emergence herbicidal activity against two-leaf stage Sida spinosa assessed as efficacy of weed growth control at 60 g ai/ha under greenhouse conditions
[21] = tested on: Galinsoga quadriradiata; test: Post-emergence herbicidal activity against four-leafstage of Galinsoga quadriradiata assessed as efficacy of weed growth control at 80 g ai/ha under greenhouse conditions
[22] = tested on: Senna tora; test: Post-emergence herbicidal activity against one-leaf stage Senna tora assessed as efficacy of weed growth control at 40 g ai/ha under greenhouse conditions
[23] = tested on: Setaria viridis; test: Post-emergence herbicidal activity against two-leaf stage Setaria viridis (green foxtail) assessed as efficacy of weed growth control at 750 g ai/ha under greenhouse conditions
[24] = tested on: Cyperus microiria; test: Post-emergence herbicidal activity against three-leaf stage Cyperus microiria assessed as efficacy of weed growth control at 40 g ai/ha under greenhouse conditions
[25] = tested on: Amaranthus viridis; test: Post-emergence herbicidal activity against three-leaf stage Amaranthus viridis assessed as efficacy of weed growth control at 60 g ai/ha under greenhouse conditions
[26] = tested on: Persicaria lapathifolia; test: Post-emergence herbicidal activity against three-leaf stage Persicaria lapathifolia assessed as efficacy of weed growth control at 40 g ai/ha under greenhouse conditions
[27] = tested on: Stellaria media; test: Post-emergence herbicidal activity against eight-leaf stage Stellaria media assessed as efficacy of weed growth control at 40 g ai/ha under greenhouse conditions
[28] = tested on: Echinochloa crus-galli; test: Post-emergence herbicidal activity against three-leaf stage Echinochloa crus-galli (barnyard grass) assessed as efficacy of weed growth control at 80 g ai/ha under greenhouse conditions
[29] = tested on: Cyperus rotundus; test: Post-emergence herbicidal activity against four to five-leaf stage Cyperus rotundus assessed as efficacy of weed growth control at 750 g ai/ha under greenhouse conditions
[30] = tested on: Cyperus rotundus; test: Post-emergence herbicidal activity against four to five-leaf stage Cyperus rotundus assessed as efficacy of weed growth control at 60 g ai/ha under greenhouse conditions
[31] = tested on: Cynodon dactylon; test: Post-emergence herbicidal activity against 15 cm leaf stage Cynodon dactylon assessed as efficacy of weed growth control at 80 g ai/ha under greenhouse conditions
[32] = tested on: Solanum nigrum; test: Post emergence herbicidal activity against four-leaf stage Solanum nigrum (black nightshade) assessed as efficacy of weed growth control at 80 g ai/ha under greenhouse conditions
[33] = tested on: Cynodon dactylon; test: Post-emergence herbicidal activity against 15 cm leaf stage Cynodon dactylon assessed as efficacy of weed growth control at 40 g ai/ha under greenhouse conditions
[34] = tested on: Capsella bursa-pastoris; test: Post-emergence herbicidal activity against four-leafstage Capsella bursa-pastoris assessed as efficacy of weed growth control at 40 g ai/ha under greenhouse conditions
[35] = tested on: Avena fatua; test: Post emergence herbicidal activity against three-leaf stage Avena fatua assessed as efficacy of weed growth control at 60 g ai/ha under greenhouse conditions
[36] = tested on: Solanum nigrum; test: Post emergence herbicidal activity against four-leaf stage Solanum nigrum (black nightshade) assessed as efficacy of weed growth control at 60 g ai/ha under greenhouse conditions
[37] = tested on: Sida spinosa; test: Post-emergence herbicidal activity against two-leaf stage Sida spinosa assessed as efficacy of weed growth control at 750 g ai/ha under greenhouse conditions
[38] = tested on: Setaria viridis; test: Post-emergence herbicidal activity against two-leaf stage Setaria viridis (green foxtail) assessed as efficacy of weed growth control at 40 g ai/ha under greenhouse conditions
[39] = tested on: Capsella bursa-pastoris; test: Post-emergence herbicidal activity against four-leafstage Capsella bursa-pastoris assessed as efficacy of weed growth control at 750 g ai/ha under greenhouse conditions
[40] = tested on: Sorghum halepense; test: Post emergence herbicidal activity against four to five-leaf stage Sorghum halepense (Johnson grass) assessed as efficacy of weed growth control at 60 g ai/ha under greenhouse conditions
[41] = tested on: Senna tora; test: Post-emergence herbicidal activity against one-leaf stage Senna tora assessed as efficacy of weed growth control at 750 g ai/ha under greenhouse conditions
[42] = tested on: Commelina communis; test: Post emergence herbicidal activity against two-leaf stage Commelina communis (Asiatic dayflower) assessed as efficacy of weed growth control at 40 g ai/ha under greenhouse conditions

COc1cc(OC)nc(NC(=O)NS(=O)(=O)c2ncccc2C(=O)N(C)C)n1 [NICOSULFURON]
Efficacy [1]: 95% | Efficacy [2]: 95% | Efficacy [3]: 50% | Efficacy [4]: 95% | Efficacy [5]: 95% | Efficacy [6]: 95% | Efficacy [7]: 95% | Efficacy [8]: 95% | Efficacy [9]: 70% | Efficacy [10]: <50% | Efficacy [11]: 95% | Efficacy [12]: 70% | Efficacy [13]: 50% | Efficacy [14]: 95% | Efficacy [15]: 50% | Efficacy [16]: 50% | Efficacy [17]: 95% | Efficacy [18]: <50% | Efficacy [19]: 95% | Efficacy [20]: 50% | Efficacy [21]: 95% | Efficacy [22]: 50% | Efficacy [23]: 70% | Efficacy [24]: 95% | Efficacy [25]: 95% | Efficacy [26]: 70% | Efficacy [27]: 70% | Efficacy [28]: 95% | Efficacy [29]: 50% | Efficacy [30]: 70% | Efficacy [31]: <50% | Efficacy [32]: 70% | Efficacy [33]: <50% | Efficacy [34]: 70% | Efficacy [35]: 95% | Efficacy [36]: 50% | Efficacy [37]: 95% | Efficacy [38]: 95% | Efficacy [39]: 95% | Efficacy [40]: 95% | Efficacy [41]: <50% | Efficacy [42]: 70%
